Measured values from patent US11053218B2, “3-(1-oxoisoindolin-2-yl)piperidine-2,6-dione derivatives and uses thereof” (Novartis AG, priority 2017, dated 2021).
Read-outs that look alike come from different tables or passages of the source.

Tests used:
Format in all cases: cell-based
IKZF2 = IKZF2 (Homo sapiens, UniProt Q96SW2+Q9UKS7); experiment: Prolabel quantification of IKZF2 protein levels in 293GT cells
IKZF1 = IKZF1 (Homo sapiens, UniProt Q13422+Q96SW2); experiment: Prolabel quantification of IKZF1 protein levels in 293GT cells; conditions: Prolabel assay, read-out: IKZF1 EC50
GSPT1 = GSPT1 (Homo sapiens, UniProt P15170+Q96SW2); experiment: Prolabel quantification of GSPT1 protein levels in 293GT cells; conditions: Prolabel assay, read-out: GSPT1 EC50
Experimental: The Prolabel system from DiscoverX was used to develop high-throughput and quantitative assays to measure changes in IKZF1, IKZF2 and GSPT1 protein levels in response to compounds. The prolabel tag was derived from the alpha fragment of beta galactosidase and has the following protein sequence: mssnslavvlqrrdwenpgvtqlnrlaahppfaswrnseeartdrpsqqlrslnge. The complementary fragment of beta-galactosidase (from DiscoverX), is added to the prolabel tag to form an active beta galactosidase enzyme whose activity can be precisely measured. In this way, the levels of a fusion protein with the prolabel tag can be quantified in cell lysates.
Lentiviral vectors, based on the Invitrogen pLenti6.2/V5 DEST backbone, were constructed that placed the prolabel tag upstream of IKZF1, IKZF2 or GSPT1 and expressed the fusion protein from a CMV promoter.
To ensure moderate and consistent expression of the prolabel fusion proteins across all cells in the population, stable cell lines were constructed from cells expressing a single copy of the construct. Lentivirus packaged with the constructs was made using the Virapower kit from Invitrogen.
The levels of prolabel tagged fusion proteins in compound treated cell lines were measured as follows:
Day 1, Cells were diluted to 1.0×10^6 cells/ml in normal growth medium. 17.5 μL of cells were plated in each well of a solid white 384 well plate. Plates were incubated overnight in a 37° C. tissue culture incubator.
Day 2, Serial dilutions of compounds were made in 384 well plates from 10 mM stocks. 15 μL of DMSO was added to each well of a 384 well plate. In the first column 15 μL of stock compound was added. The solution was mixed and 15 μL was transferred to the next column. This was repeated until 20 two-fold dilutions were prepared. 2.5 μL of diluted compounds were transferred into 60 μL of cell culture medium in another 384 well plate, and mixed well. 2.5 μL of this mixture was added to the plated cells. The final DMSO concentration was 0.5% and the highest concentration of compound was 50 μM. Plates were incubated overnight (e.g., about 14 h, 18 h, or 24 h) in a 37° C. tissue culture incubator.
Day 3, Plates were removed from the incubator and allowed to equilibrate at rt for 30 minutes. Prolabel substrate (DiscoverX PathHunter Prolabel Detection Kit, User manual: 93-0180) was added as described by the manufacturers protocols. Plates were incubated at rt for three hours and luminescence was read using an Envision reader (Perkin Elmer) Data was analyzed and visualized using the Spotfire software package.

[1] = 24 h, 10 μM, 24 h, 293GT cells; read-out: IKZF2 % protein reduction at 10 μM, 24 h
[2] = Prolabel assay, 293GT cells; read-out: IKZF2 EC50

Sequence of IKZF1 (Q13422 whole entry): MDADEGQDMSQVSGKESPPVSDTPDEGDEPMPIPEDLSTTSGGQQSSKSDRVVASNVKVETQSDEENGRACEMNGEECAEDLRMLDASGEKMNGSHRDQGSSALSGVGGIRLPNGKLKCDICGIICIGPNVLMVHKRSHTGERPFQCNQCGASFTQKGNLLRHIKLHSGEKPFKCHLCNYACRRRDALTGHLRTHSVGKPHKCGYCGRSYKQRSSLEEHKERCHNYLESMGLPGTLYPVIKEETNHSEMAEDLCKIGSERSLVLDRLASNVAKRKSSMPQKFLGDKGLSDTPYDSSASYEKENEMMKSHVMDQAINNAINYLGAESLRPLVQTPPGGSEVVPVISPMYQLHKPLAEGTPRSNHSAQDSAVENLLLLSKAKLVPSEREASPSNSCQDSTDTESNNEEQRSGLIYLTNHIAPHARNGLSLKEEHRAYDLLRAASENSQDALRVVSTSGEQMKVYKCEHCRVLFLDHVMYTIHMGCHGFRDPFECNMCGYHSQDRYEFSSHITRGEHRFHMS
Sequence of IKZF1 (Q96SW2 whole entry): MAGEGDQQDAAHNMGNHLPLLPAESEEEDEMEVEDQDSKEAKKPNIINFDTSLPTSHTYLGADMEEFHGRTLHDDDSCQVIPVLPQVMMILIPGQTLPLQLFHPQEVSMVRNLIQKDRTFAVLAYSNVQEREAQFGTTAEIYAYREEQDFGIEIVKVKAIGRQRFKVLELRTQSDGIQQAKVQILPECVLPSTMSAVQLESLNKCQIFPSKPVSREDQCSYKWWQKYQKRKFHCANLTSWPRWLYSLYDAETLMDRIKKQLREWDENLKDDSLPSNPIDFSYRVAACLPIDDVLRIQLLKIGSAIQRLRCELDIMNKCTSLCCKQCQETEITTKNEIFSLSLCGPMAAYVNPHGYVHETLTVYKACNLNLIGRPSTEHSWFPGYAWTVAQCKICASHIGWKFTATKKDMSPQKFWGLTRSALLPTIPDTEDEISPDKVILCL
Sequence of IKZF1 (Q16531 whole entry partner): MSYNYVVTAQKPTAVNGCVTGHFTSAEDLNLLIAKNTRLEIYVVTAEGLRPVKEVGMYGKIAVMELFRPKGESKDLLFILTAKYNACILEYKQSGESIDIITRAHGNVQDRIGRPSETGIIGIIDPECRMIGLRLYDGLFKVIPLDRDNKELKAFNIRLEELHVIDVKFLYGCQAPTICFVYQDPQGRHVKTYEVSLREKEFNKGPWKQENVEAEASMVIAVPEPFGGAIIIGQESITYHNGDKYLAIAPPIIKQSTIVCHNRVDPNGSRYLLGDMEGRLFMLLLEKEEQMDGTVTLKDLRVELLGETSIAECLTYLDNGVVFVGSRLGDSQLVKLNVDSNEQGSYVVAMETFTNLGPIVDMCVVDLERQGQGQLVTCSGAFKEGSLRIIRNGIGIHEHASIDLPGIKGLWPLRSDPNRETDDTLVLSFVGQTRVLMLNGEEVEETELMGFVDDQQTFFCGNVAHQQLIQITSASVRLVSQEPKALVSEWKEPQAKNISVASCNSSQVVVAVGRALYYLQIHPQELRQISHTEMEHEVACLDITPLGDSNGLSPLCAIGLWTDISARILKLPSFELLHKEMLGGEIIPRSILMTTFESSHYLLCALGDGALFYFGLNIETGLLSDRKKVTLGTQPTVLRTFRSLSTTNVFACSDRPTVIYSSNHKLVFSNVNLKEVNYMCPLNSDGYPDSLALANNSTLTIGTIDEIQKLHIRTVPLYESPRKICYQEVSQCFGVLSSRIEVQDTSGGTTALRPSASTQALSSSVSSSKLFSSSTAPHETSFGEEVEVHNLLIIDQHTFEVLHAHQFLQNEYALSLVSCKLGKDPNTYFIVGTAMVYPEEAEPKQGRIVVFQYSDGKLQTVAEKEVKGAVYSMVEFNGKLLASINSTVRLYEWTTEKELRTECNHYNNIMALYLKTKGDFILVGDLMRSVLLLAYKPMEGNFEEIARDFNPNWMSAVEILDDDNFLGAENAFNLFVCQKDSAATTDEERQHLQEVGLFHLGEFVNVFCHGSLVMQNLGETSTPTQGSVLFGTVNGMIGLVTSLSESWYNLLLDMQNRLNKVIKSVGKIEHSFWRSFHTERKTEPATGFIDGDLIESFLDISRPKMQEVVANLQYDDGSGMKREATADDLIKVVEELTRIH
Sequence of GSPT1 (P15170 whole entry, the tested form may be a part): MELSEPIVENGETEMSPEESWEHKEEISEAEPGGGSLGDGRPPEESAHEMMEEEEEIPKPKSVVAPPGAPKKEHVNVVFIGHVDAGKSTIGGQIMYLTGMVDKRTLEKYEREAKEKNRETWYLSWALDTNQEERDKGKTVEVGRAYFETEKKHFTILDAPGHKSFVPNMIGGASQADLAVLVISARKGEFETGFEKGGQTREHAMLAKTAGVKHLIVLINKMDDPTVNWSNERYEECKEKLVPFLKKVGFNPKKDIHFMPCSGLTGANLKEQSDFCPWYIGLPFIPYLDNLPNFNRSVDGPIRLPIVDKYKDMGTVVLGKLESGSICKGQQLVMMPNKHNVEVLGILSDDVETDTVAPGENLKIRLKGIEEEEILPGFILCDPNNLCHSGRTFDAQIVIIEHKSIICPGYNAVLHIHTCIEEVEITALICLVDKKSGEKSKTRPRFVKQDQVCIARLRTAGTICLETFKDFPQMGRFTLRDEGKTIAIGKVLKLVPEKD
Sequence of GSPT1 (Q96SW2 whole entry, the tested form may be a part): as the sequence (Q96SW2 whole entry) above
Sequence of GSPT1 (Q16531 whole entry partner, the tested form may be a part): as the sequence (Q16531 whole entry partner) above
Sequence of IKZF2 (Q9UKS7 whole entry): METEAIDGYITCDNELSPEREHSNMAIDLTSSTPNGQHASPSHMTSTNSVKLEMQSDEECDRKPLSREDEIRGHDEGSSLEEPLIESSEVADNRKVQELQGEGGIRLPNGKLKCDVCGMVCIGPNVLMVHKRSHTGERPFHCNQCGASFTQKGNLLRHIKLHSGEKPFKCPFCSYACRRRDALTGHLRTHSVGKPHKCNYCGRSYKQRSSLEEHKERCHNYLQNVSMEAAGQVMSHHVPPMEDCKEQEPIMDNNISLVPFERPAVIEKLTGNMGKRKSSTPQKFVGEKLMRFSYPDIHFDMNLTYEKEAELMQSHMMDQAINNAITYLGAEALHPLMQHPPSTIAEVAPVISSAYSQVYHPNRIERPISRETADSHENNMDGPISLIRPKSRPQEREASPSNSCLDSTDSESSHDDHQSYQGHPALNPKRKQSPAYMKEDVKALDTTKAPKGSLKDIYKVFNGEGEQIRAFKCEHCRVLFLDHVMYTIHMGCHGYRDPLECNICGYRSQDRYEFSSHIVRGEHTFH
Sequence of IKZF2 (Q96SW2 whole entry): as the sequence (Q96SW2 whole entry) above
Sequence of IKZF2 (Q16531 whole entry partner): as the sequence (Q16531 whole entry partner) above

Row | inhibition at 10 µM (IKZF2; [1]) [%] | DC50 (IKZF2; [2]) [nM] | DC50 (IKZF1) [nM] | DC50 (GSPT1) [nM] | SMILES | inhibition at 10 µM (IKZF2; 10 μM, 24 h, 293GT cells; read-out: IKZF2 % protein reduction at 10 μM, 24 h) [%]
1 | 50 | 15 | > 30000 | > 30000 | O=C1CCC(N2Cc3cc(C4CCN(Cc5ccc(Cl)cc5Cl)CC4)ccc3C2=O)C(=O)N1 (stereo not shown) [Compound I-113, 3-(5-(1-(2,4-dichlorobenzyl)piperidin-4-yl)-1-oxoisoindolin-2-yl)piperidine-2,6-dione] | –
2 | 80 | 31 | > 30000 | > 30000 | O=C1CCC(N2Cc3cc(C4CCN(Cc5cccnc5)CC4)ccc3C2=O)C(=O)N1 (stereo not shown) [Compound I-59, 3-(1-oxo-5-(1-(pyridin-3-ylmethyl)piperidin-4-yl)isoindolin-2-yl)piperidine-2,6-dione] | –
3 | 80 | 24 | 39 | > 30000 | O=C1CCC(N2Cc3cc(C4CCN(Cc5csc(-c6ccccc6)n5)CC4)ccc3C2=O)C(=O)N1 (stereo not shown) [Compound I-211, 3-(1-oxo-5-(1-((2-phenylthiazol-4-yl)methyl)piperidin-4-yl)isoindolin-2-yl)piperidine-2,6-dione] | –
4 | 75 | 29 | > 30000 | > 30000 | CC(=O)Nc1ccc(CN2CCC(c3ccc4c(c3)CN(C3CCC(=O)NC3=O)C4=O)CC2)cc1 (stereo not shown) [Compound I-86, N-(4-((4-(2-(2,6-dioxopiperidin-3-yl)-1-oxoisoindolin-5-yl)piperidin-1-yl)methyl)phenyl)acetamide] | –
5 | 70 | 22 | > 50000 | > 50000 | O=C1CCC(N2Cc3cc(C4CCN(Cc5cc(F)c(O)c(F)c5)CC4)ccc3C2=O)C(=O)N1 (stereo not shown) [Compound I-156, 3-(5-(1-(3,5-difluoro-4-hydroxybenzyl)piperidin-4-yl)-1-oxoisoindolin-2-yl)piperidine-2,6-dione] | –
6 | 60 | 240 | > 30000 | > 30000 | Cc1nc2sccn2c1CN1CCC(c2ccc3c(c2)CN(C2CCC(=O)NC2=O)C3=O)CC1 (stereo not shown) [Compound I-125, 3-(5-(1-((6-methylimidazo[2,1-b]thiazol-5-yl)methyl)piperidin-4-yl)-1-oxoisoindolin-2-yl)piperidine-2,6-dione] | –
7 | 60 | 21 | > 30000 | > 30000 | Cc1onc(-c2ccccc2)c1CN1CCC(c2ccc3c(c2)CN(C2CCC(=O)NC2=O)C3=O)CC1 (stereo not shown) [Compound I-251, 3-(5-(1-((5-methyl-3-phenylisoxazol-4-yl)methyl)piperidin-4-yl)-1-oxoisoindolin-2-yl)piperidine-2,6-dione] | –
8 | 20 | > 30000 | > 30000 | – | CC1(C)CN(Cc2ccccc2)CCC1c1ccc2c(c1)CN(C1CCC(=O)NC1=O)C2=O (stereo not shown) [Compound I-185, 3-(5-(1-benzyl-3,3-dimethylpiperidin-4-yl)-1-oxoisoindolin-2-yl)piperidine-2,6-dione] | –
9 | 0 | > 30000 | > 30000 | – | O=C1CCC(N2Cc3cc(C4=CCCNC4)ccc3C2=O)C(=O)N1 (stereo not shown) [Compound I-282, 3-(1-oxo-5-(1,2,5,6-tetrahydropyridin-3-yl)isoindolin-2-yl)piperidine-2,6-dione] | –
10 | 50 | 10 | > 25000 | – | O=C1CCC(N2Cc3cc(C4CCN(Cc5nccc6ccccc56)CC4)ccc3C2=O)C(=O)N1 (stereo not shown) [Compound I-226, 3-(5-(1-(isoquinolin-1-ylmethyl)piperidin-4-yl)-1-oxoisoindolin-2-yl)piperidine-2,6-dione] | –
11 | 70 | 11 | > 30000 | – | O=C1CCC(N2Cc3cc(C4CCN(Cc5cccc(C(F)F)c5)CC4)ccc3C2=O)C(=O)N1 (stereo not shown) [Compound I-73, 3-(5-(1-(3-(difluoromethyl)benzyl)piperidin-4-yl)-1-oxoisoindolin-2-yl)piperidine-2,6-dione] | –
12 | 30 | 36 | > 50000 | – | Cc1ccc2nc(CN3CCC(c4ccc5c(c4)CN(C4CCC(=O)NC4=O)C5=O)CC3)cc(=O)n2c1 (stereo not shown) [Compound I-221, 3-(5-(1-((7-methyl-4-oxo-4H-pyrido[1,2-a]pyrimidin-2-yl)methyl)piperidin-4-yl)-1-oxoisoindolin-2-yl)piperidine-2,6-dione] | –
13 | 20 | 130 | > 30000 | – | O=C1CCC(N2Cc3cc(C4CCN(Cc5ncccn5)CC4)ccc3C2=O)C(=O)N1 (stereo not shown) [Compound I-95, 3-(1-oxo-5-(1-(pyrimidin-2-ylmethyl)piperidin-4-yl)isoindolin-2-yl)piperidine-2,6-dione] | –
14 | 65 | 9 | > 30000 | – | CC(c1ccccc1)N1CCC(c2ccc3c(c2)CN(C2CCC(=O)NC2=O)C3=O)CC1 (single isomer, unassigned) [Compound I-230] | –
15 | 5 | > 30000 | > 30000 | – | CC(C)(C)c1ccc(C(=O)N2CCC(c3ccc4c(c3)CN(C3CCC(=O)NC3=O)C4=O)CC2)cc1 (stereo not shown) [Compound I-242, 3-(5-(1-(4-(tert-butyl)benzoyl)piperidin-4-yl)-1-oxoisoindolin-2-yl)piperidine-2,6-dione] | –
16 | 70 | 9 | > 30000 | – | CCc1ccc(CN2CCC(c3ccc4c(c3)CN(C3CCC(=O)NC3=O)C4=O)CC2)cc1 (stereo not shown) [Compound I-66, 3-(5-(1-(4-ethylbenzyl)piperidin-4-yl)-1-oxoisoindolin-2-yl)piperidine-2,6-dione] | –
17 | 60 | 12 | > 30000 | – | O=C1CCC(N2Cc3cc(C4CCN(Cc5ccccc5OC(F)F)CC4)ccc3C2=O)C(=O)N1 (stereo not shown) [Compound I-80, 3-(5-(1-(2-(difluoromethoxy)benzyl)piperidin-4-yl)-1-oxoisoindolin-2-yl)piperidine-2,6-dione] | –
18 | 60 | 31 | > 30000 | – | CC(C)CN1CCC(c2ccc3c(c2)CN(C2CCC(=O)NC2=O)C3=O)CC1 (stereo not shown) [Compound I-4, 3-(5-(1-isobutylpiperidin-4-yl)-1-oxoisoindolin-2-yl) piperidine-2,6-dione] | –
19 | 70 | 39 | > 30000 | – | O=C1CCC(N2Cc3cc(C4CCN(Cc5c[nH]nc5-c5ccccc5)CC4)ccc3C2=O)C(=O)N1 (stereo not shown) [Compound I-148, 3-(1-oxo-5-(1-((3-phenyl-1H-pyrazol-4-yl)methyl)piperidin-4-yl)isoindolin-2-yl)piperidine-2,6-dione] | –
20 | 45 | 190 | > 30000 | – | O=C1CCC(N2Cc3cc(C4CCN(Cc5cccc6ncnn56)CC4)ccc3C2=O)C(=O)N1 (stereo not shown) [Compound I-127, 3-(5-(1-([1,2,4]triazolo[1,5-a]pyridin-5-ylmethyl)piperidin-4-yl)-1-oxoisoindolin-2-yl)piperidine-2,6-dione] | –
21 | 60 | 110 | > 25000 | – | O=C1CCC(N2Cc3cc(C4CCN(Cc5cscn5)CC4)ccc3C2=O)C(=O)N1 (stereo not shown) [Compound I-238, 3-(1-oxo-5-(1-(thiazol-4-ylmethyl)piperidin-4-yl)isoindolin-2-yl)piperidine-2,6-dione] | –
22 | 40 | 67 | > 30000 | – | O=C1CCC(N2Cc3cc(C4CCN(CCC(F)(F)F)CC4)ccc3C2=O)C(=O)N1 (stereo not shown) [Compound I-179, 3-(1-oxo-5-(1-(3,3,3-trifluoropropyl)piperidin-4-yl)isoindolin-2-yl)piperidine-2,6-dione] | –
23 | 60 | 85 | > 30000 | – | O=C1CCC(N2Cc3cc(C4CCN(Cc5cnc(Cl)s5)CC4)ccc3C2=O)C(=O)N1 (stereo not shown) [Compound I-10, 3-(5-(1-((2-chlorothiazol-5-yl)methyl)piperidin-4-yl)-1-oxoisoindolin-2-yl)piperidine-2,6-dione] | –

Row | SMILES | inhibition at 10 µM (IKZF2; [1]) [%] | DC50 (IKZF2; [2]) [nM] | DC50 (IKZF1) [nM] | DC50 (GSPT1) [nM] | inhibition at 10 µM (IKZF2; 10 μM, 24 h, 293GT cells; read-out: IKZF2 % protein reduction at 10 μM, 24 h) [%]
24 | Cc1cccc(CN2CCC(c3ccc4c(c3)CN(C3CCC(=O)NC3=O)C4=O)CC2)c1 (stereo not shown) [Compound I-173, 3-(5-(1-(3-methylbenzyl)piperidin-4-yl)-1-oxoisoindolin-2-yl)piperidine-2,6-dione] | – | 74 | > 30000 | – | 65
